# Measurements from ChEMBL document CHEMBL5579883, “Discovery of Novel Neo-Clerodane Derivatives as Potent Dual-Functional Antiosteoporosis Agents through Targeting Peroxisome Proliferator-Activated Receptor-γ” (J Med Chem, 2024).
# Active and inactive are the calls of the source. The rule behind the calls is not given here.
# Columns and labels:
# BMDM [1] = assay: cells; conditions: Mus musculus, 144 h, read-out: INH
# Description: Inhibition of osteoclastogenesis in C57BL/6J mouse Bone marrow macrophage cells assessed as inhibition of RANKL-stimulated osteoclast formation at 10 uM measured after 6 days by tartrate-resistant acid phosphatase (TRAP) staining assay relative to control
# Mus musculus [2] = assay: Anti-osteoporosis activity in OVX-induced osteoporosis C57BL/6J mouse model assessed as reduction in PINP level at 10 mg/kg, IG administered once a day for 4 weeks by ELISA method; type: functional, organism-based
# BMDM [3] = assay: Inhibition of osteoclastogenesis in C57BL/6J mouse Bone marrow macrophage cells assessed as inhibition of RANKL-stimulated osteoclast formation measured after 6 days by tartrate-resistant acid phosphatase (TRAP) staining assay; conditions: 144 h
# Mus musculus [4] = assay: Anti-osteoporosis activity in C57BL/6J mouse model assessed as downregulation of OVX-induced IL-6 accumulation at 10 mg/kg, IG administered once a day for 4 weeks by ELISA method; type: functional, organism-based
# Mus musculus [5] = assay: Anti-osteoporosis activity in OVX-induced osteoporosis C57BL/6J mouse model assessed as prevention of trabecular number decrease in femur at 10 mg/kg, IG administered once a day for 4 weeks by micro-CT scanning analysis; type: functional, organism-based
# BMDM [6] = assay: Cytotoxicity against mouse Bone marrow macrophage at 10 uM measured after 72 hrs by MTT assay; type: toxicity, cell-based
# Mus musculus [7] = assay: Anti-osteoporosis activity in OVX-induced osteoporosis C57BL/6J mouse model assessed as reduction in ACP5 level at 10 mg/kg, IG administered once a day for 4 weeks by ELISA method; type: functional, organism-based
# Mus musculus [8] = assay: Anti-osteoporosis activity in OVX-induced osteoporosis C57BL/6J mouse model assessed as prevention of trabecular thickness decrease in femur at 10 mg/kg, IG administered once a day for 4 weeks by micro-CT scanning analysis; type: functional, organism-based
# Mus musculus [9] = assay: Anti-osteoporosis activity in OVX-induced osteoporosis C57BL/6J mouse model assessed as reduction in CTX-1 level at 10 mg/kg, IG administered once a day for 4 weeks by ELISA method; type: functional, organism-based
# Mus musculus [10] = assay: Anti-osteoporosis activity in OVX-induced osteoporosis C57BL/6J mouse model assessed as reduction in RANKL level at 10 mg/kg, IG administered once a day for 4 weeks by ELISA method; type: functional, organism-based
# Mus musculus [11] = assay: Anti-osteoporosis activity in OVX-induced osteoporosis C57BL/6J mouse model assessed as prevention of increase in bone surface area/bone volume in femur at 10 mg/kg, IG administered once a day for 4 weeks by micro-CT scanning analysis; type: functional, organism-based
# Mus musculus [12] = assay: Anti-osteoporosis activity in OVX-induced osteoporosis C57BL/6J mouse model assessed as reduction in osteocalcin level at 10 mg/kg, IG administered once a day for 4 weeks by ELISA method; type: functional, organism-based
# Mus musculus [13] = assay: Anti-osteoporosis activity in OVX-induced osteoporosis C57BL/6J mouse model assessed as prevention of bone volume/[…] volume decrease in femur at 10 mg/kg, IG administered once a day for 4 weeks by micro-CT scanning analysis; type: functional, organism-based
# [14] = biological target: T1, Peroxisome proliferator-activated receptor gamma (Homo sapiens, UniProt P37231); assay: Antagonist activity at PPAR gamma LBD (203 to 476 residues) (unknown origin) expressed in HEK293T cells co-transfected with pCMV-GAL4-PPARgamma-LBD-SV40-Renilla-luciferase assessed as reduction of rosiglitazone induced PPAR-gamma activation incubated for 24 hrs by dural-luciferase reporter assay; type: cell-based
# T1 sequence (P37231 whole entry): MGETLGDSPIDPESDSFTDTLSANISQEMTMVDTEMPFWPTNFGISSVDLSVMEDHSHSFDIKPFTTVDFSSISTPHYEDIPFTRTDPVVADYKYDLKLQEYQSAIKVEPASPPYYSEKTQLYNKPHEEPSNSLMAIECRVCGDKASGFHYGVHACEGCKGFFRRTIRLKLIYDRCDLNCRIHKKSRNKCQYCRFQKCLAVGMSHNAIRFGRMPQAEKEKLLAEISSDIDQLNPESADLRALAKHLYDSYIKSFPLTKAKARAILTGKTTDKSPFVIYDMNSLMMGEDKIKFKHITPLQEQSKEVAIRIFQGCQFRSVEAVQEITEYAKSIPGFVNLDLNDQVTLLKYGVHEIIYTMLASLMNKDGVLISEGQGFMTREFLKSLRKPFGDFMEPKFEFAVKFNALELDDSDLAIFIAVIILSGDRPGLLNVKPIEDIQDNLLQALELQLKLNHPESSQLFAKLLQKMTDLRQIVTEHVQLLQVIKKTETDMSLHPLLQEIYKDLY
# Mus musculus [15] = assay: Anti-osteoporosis activity in C57BL/6J mouse model assessed as downregulation of OVX-induced TNF-alpha accumulation at 10 mg/kg, IG administered once a day for 4 weeks by ELISA method; type: functional, organism-based
# Mus musculus [16] = assay: Anti-osteoporosis activity in OVX-induced osteoporosis C57BL/6J mouse model assessed as recovery of serum estradiol level at 10 mg/kg, IG administered once a day for 4 weeks by ELISA method; type: functional, organism-based
# [17] = biological target: T2, Peroxisome proliferator-activated receptor gamma coactivator 1-alpha (Homo sapiens) (UniProt Q9UBK2); assay: Effect on PGC-1 alpha recruitment (unknown origin) incubated for 24 hrs at 10 uM by TR-FRET assay
# T2 sequence (whole entry): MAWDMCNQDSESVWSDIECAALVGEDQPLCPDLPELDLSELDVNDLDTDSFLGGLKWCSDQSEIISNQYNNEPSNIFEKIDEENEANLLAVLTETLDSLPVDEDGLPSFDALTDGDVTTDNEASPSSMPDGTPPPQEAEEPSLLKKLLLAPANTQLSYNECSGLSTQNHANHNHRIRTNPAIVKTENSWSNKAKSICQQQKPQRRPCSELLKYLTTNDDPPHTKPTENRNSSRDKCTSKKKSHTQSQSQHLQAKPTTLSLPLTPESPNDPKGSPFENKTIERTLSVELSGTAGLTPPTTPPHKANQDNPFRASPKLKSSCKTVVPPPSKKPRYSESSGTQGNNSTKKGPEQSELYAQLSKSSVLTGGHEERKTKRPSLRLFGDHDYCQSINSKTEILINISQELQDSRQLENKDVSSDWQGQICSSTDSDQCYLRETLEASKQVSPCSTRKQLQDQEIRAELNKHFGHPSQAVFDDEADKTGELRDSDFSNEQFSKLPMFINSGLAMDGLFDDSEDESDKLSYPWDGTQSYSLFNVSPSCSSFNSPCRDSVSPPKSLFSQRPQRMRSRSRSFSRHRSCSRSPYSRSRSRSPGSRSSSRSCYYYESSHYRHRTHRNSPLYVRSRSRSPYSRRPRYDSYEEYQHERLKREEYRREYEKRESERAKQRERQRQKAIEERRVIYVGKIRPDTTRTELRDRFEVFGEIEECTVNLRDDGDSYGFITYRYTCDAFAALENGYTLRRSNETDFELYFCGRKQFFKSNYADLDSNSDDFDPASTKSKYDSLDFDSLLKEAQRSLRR
# [18] = biological target: T1, Peroxisome proliferator-activated receptor gamma; assay: Binding affinity to PPAR gamma LBD (203 to 476 residues) (unknown origin) extracted from Escherichia coli BL21 (DE3) cells assessed as dissociation constant in presence of rosiglitazone by Isothermal titration calorimetry method
# [19] = biological target: Nuclear receptor corepressor 1 (Homo sapiens) (UniProt O75376); assay: Effect on NCoR recruitment (unknown origin) at 10 uM incubated for 24 hrs by TR-FRET assay
# [20] = biological target: T1, Peroxisome proliferator-activated receptor gamma; assay: Binding affinity to PPAR gamma LBD (203 to 476 residues) (unknown origin) extracted from Escherichia coli BL21 (DE3) cells assessed as dissociation constant by Isothermal titration calorimetry method
# BMDM [21] = assay: Inhibition of osteoclastogenesis in C57BL/6J mouse Bone marrow macrophage cells assessed as inhibition of RANKL-stimulated osteoclast formation at 10 uM measured after 7 days in presence of rosiglitazone by tartrate-resistant acid phosphatase (TRAP) staining assay; type: functional, cell-based; conditions: time 7.0 day
# BMDM [22] = assay: Inhibition of osteoclastogenesis in C57BL/6J mouse Bone marrow macrophage cells assessed as inhibition of RANKL-stimulated osteoclast formation at 10 uM measured after 7 days by tartrate-resistant acid phosphatase (TRAP) staining assay; type: functional, cell-based; conditions: time 7.0 day
# Chain of Nuclear receptor corepressor 1 (Homo sapiens) (O75376 whole entry, the tested form may be a part): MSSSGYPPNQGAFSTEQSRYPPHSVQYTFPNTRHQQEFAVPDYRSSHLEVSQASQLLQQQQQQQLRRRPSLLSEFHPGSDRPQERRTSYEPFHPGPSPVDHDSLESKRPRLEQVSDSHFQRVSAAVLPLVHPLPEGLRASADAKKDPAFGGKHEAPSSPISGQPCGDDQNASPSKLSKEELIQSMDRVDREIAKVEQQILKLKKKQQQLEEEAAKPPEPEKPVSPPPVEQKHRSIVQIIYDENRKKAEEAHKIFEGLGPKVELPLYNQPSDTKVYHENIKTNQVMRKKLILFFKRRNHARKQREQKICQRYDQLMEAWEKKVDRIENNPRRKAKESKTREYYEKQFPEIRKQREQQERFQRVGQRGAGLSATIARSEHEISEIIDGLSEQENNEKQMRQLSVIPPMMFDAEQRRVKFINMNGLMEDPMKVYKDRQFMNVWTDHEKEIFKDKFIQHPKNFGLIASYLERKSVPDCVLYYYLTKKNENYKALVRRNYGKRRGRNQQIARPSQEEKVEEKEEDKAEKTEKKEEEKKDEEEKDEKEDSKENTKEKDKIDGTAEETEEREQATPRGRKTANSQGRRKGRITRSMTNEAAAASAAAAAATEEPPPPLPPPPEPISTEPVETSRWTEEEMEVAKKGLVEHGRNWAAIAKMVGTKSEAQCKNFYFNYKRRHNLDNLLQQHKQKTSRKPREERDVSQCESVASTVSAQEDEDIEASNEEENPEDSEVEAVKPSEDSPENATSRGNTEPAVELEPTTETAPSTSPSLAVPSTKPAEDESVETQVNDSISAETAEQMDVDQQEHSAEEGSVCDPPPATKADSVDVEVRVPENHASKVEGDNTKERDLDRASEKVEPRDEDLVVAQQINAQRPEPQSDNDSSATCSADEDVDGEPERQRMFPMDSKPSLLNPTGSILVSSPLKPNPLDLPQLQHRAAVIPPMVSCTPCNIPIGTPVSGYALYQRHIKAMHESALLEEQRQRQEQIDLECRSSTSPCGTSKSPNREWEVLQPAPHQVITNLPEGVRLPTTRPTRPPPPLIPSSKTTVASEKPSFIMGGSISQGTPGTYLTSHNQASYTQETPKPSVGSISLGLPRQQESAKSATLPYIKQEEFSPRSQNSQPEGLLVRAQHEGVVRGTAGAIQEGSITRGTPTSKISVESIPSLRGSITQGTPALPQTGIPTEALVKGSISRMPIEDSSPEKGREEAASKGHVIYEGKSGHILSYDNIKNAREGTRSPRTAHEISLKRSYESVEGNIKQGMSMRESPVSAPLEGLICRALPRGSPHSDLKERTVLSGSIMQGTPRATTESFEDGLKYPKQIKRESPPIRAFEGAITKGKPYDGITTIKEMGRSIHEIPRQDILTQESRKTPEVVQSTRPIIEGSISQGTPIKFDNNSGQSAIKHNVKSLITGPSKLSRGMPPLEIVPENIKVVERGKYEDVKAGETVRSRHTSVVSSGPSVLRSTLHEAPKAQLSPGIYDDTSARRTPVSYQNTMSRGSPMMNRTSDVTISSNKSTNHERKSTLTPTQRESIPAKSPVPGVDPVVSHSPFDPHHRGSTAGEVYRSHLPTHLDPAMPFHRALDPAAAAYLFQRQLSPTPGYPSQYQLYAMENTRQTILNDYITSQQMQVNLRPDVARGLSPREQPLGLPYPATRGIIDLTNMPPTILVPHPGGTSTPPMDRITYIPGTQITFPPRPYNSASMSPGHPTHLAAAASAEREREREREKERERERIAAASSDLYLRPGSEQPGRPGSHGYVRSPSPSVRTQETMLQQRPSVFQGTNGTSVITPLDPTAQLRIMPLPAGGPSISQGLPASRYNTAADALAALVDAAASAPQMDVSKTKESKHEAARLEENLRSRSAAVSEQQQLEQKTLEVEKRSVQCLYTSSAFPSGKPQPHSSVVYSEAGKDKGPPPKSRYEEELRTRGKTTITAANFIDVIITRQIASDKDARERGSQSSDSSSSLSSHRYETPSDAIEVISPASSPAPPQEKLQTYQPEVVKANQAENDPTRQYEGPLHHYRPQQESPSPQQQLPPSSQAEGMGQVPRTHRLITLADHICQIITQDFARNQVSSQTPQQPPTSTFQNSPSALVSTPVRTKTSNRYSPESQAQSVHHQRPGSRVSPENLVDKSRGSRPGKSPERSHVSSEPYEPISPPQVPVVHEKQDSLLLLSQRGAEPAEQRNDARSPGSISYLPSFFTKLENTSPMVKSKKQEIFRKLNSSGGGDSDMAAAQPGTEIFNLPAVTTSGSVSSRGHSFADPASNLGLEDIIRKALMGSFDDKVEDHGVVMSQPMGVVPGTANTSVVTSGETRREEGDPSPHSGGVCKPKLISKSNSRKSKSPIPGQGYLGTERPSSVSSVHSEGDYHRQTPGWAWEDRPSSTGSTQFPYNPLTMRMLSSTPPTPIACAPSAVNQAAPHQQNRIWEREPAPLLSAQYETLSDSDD
Compound,inhibition at 10 µM (BMDM [1]) [%],IC50 (BMDM [3]) [nM],Activity (BMDM [6]),IC50 [14] [µM],Activity [17],Kd [18] [µM],Activity [19],Kd [20] [µM],inhibition (BMDM [21]),inhibition (BMDM [22]),further results
CCC(C)C(=O)O[C@@H](C[C@@]1(C)[C@H](C)C[C@H](OC(C)=O)[C@]2(COC(C)=O)[C@@H]1CCC[C@]21CO1)C1=CC(=O)OC1 (stereo partly drawn),> 50,1420,Non-Toxic,12.2,–,–,–,–,–,–,Activity (Mus musculus [2]): Active; Activity (Mus musculus [4]): Active; Activity (Mus musculus [5]): Active; Activity (Mus musculus [7]): Active; Activity (Mus musculus [8]): Active; Activity (Mus musculus [9]): Active; Activity (Mus musculus [10]): Active; Activity (Mus musculus [11]): Active; Activity (Mus musculus [12]): Active; Activity (Mus musculus [13]): Active; Activity (Mus musculus [15]): Active; Activity (Mus musculus [16]): Active
C/C=C(\C)C(=O)OC[C@@]12[C@@H](OC(C)=O)C[C@@H](C)[C@](C)(CCC3=CC(=O)OC3)[C@H]1CCC[C@]21CO1 [AJUGACUMBIN A],> 50,1920,Non-Toxic,8.35,inactive,79.5,inactive,17.7,Active,Active,–
C/C=C(\C)C(=O)O[C@@H](C[C@@]1(C)[C@H](C)C[C@H](OC(C)=O)[C@]2(COC(C)=O)[C@@H]1[C@H](O)CC[C@]21CO1)C1=CC(=O)OC1,> 50,4680,Non-Toxic,19.5,–,–,–,–,–,–,–
C/C=C(\C)C(=O)OC[C@@]12[C@H](CCC[C@]1(O)CCl)[C@@](C)(C[C@H](O)C1=CC(=O)OC1)[C@H](C)C[C@@H]2O,> 50,1720,Non-Toxic,11.5,–,–,–,–,–,–,–
CCC(C)C(=O)O[C@@H](C[C@@]1(C)[C@H](C)C[C@H](O)[C@]2(C)[C@@H]1CCC[C@H]2C(=O)OC)C1=CC(=O)OC1 (stereo partly drawn),> 50,1230,Non-Toxic,13,–,–,–,–,–,–,–
C/C=C(\C)C(=O)O[C@@H](C[C@@]1(C)[C@H](C)C[C@H](OC(C)=O)[C@]2(COC(C)=O)[C@@H]1CCC[C@]21CO1)C1=CC(=O)OC1 [AJUGANIPPONIN B],> 50,970,Non-Toxic,6.99,inactive,127,inactive,16,Active,Active,–
